Target: T1, human recombinant LPA2 expressed in CHO cells (Homo sapiens, UniProt Q9HBW0)
T1 construct: expressed in transfected cells; host or cells: CHO (CHO-hLPA2 cell line)
Experiment: FLIPR calcium mobilization assay, LPA2 antagonism in CHO-hLPA2 cells
Format: cell-based
Settings: CHO-hLPA2 cells, inhibition of LPA EC80 Ca2+ response, 30 min pre-incubation; read-out: LPA2 IC50
Procedure: The effectiveness of compounds of the present invention as LPA2 antagonist can be determined at the human recombinant LPA2 expressed in CHO cells, using a FLIPR assay in 384 well format.
CHO-hLPA2 cell lines are cultured in a humidified incubator at 5% CO2 in DMEM/F-12 (1:1) MIXTURE with 2 mM Glutamax, supplemented with 10% of Foetal Bovine Serum, 1 mM Sodium Pyruvate, 11 mM Hepes and 1× Penicillin/Streptomycin. CHO hLPA2 cells are seeded into black walled clear-bottom 384-well plates (#781091, Greiner Bio-One GmbH) at a density of 7,500 cells per well in 50 μl culture media and grown overnight in a 37° C. humidified CO2-incubator. Serial dilutions (1:3 or 1:4, 11 points CRC) of compounds are performed in 100% DMSO at 200× the final concentration. The compounds are diluted 1:50 prior to the experiment with Assay Buffer (20 mM HEPES, 145 mM NaCl, 5 mM KCl, 5.5 mM glucose, 1 mM MgCl2 and 2 mM CaCl2, pH 7.4 containing 0.01% Pluronic F-127) to obtain a solution corresponding to […] the final concentration in the assay (4×, 2% DMSO). The final concentration of DMSO in the assay will be 0.5% in each well. Medium is removed by aspiration and cells are then incubated with 30 μl of a loading solution containing 5 μM of the cytoplasmic Ca2+ indicator Cal-520 AM in Assay Buffer containing 2.5 mM probenecid for 30 min at 37° C. incubator (cell loading). The loaded cell plates are transferred into the FLIPR instrument and calcium responses are monitored during the on-line addition protocols. For testing of compounds, after the cell loading, 10 μl/well of 4× antagonists' solution was added onto the cells. […] Intracellular peak fluorescence values subtracted by baseline fluorescence are exported and analysed to determine IC50 values, respectively. The calcium response is expressed as percentage of the maximal inhibition of the EC80 agonist response.
The raw data (peak height expressed as relative fluorescence units) are normalized and transformed into “percent of inhibition”. Curve fitting and pIC50 (−Log IC50) estimations are carried out using a four-parameter logistic model using XLfit Software.

T1 sequence (Q9HBW0 whole entry): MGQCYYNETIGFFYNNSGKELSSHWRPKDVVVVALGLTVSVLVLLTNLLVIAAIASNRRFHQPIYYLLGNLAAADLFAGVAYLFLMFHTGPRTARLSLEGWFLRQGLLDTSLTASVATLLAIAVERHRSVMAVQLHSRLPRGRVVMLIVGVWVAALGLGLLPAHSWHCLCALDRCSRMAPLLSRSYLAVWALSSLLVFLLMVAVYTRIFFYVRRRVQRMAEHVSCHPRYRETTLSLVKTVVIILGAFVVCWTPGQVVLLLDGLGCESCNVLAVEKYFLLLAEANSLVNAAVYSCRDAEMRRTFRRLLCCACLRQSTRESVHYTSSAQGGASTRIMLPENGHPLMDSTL

SMILES | IC50 [nM]
CC(=O)Nc1ncc(S(=O)(=O)N2CCN(C[C@H](C)Nc3nc(C4CC4)nc4c(C)cccc34)CC2)s1 [Example 19, N-[5-({4-[(2S)-2-[(2-cyclopropyl-8-methylquinazolin-4-yl)amino]propyl]piperazin-1-yl}sulfonyl)-1,3-thiazol-2-yl]acetamide] | < 1000
C[C@@H](CN1CCN(S(=O)(=O)c2ccc(Cl)c(Cl)c2)CC1)Nc1ncnc2c(Cl)cccc12 [Example 6, 8-chloro-N-[(2S)-1-[4-(3,4-dichlorobenzenesulfonyl)piperazin-1-yl]propan-2-yl]quinazolin-4-amine] | < 1000
COCc1nc(N[C@@H](C)CN2CCN(S(=O)(=O)c3ccc(-c4onc(C)c4C)s3)CC2)c2cccc(C(F)(F)F)c2n1 [Example 61, N-[(2S)-1-(4-{[5-(3,4-dimethyl-1,2-oxazol-5-yl)thiophen-2-yl]sulfonyl}piperazin-1-yl)propan-2-yl]-2-(methoxymethyl)-8-(trifluoromethyl)quinazolin-4-amine] | < 1000
CC(=O)Nc1cc(F)c(S(=O)(=O)N2CCN(C[C@H](C)Nc3ncnc4c(C(F)(F)F)cccc34)CC2)cc1Cl [Example 42, N-[2-chloro-5-fluoro-4-({4-[(2S)-2-{[8-(trifluoromethyl)quinazolin-4-yl]amino}propyl]piperazin-1-yl}sulfonyl)phenyl]acetamide] | < 1000

Second part, the molecule after the results:

IC50 [nM] | SMILES
10 to 100 | COC(=O)Nc1nc(C)c(S(=O)(=O)N2CCN(C[C@H](C)Nc3ncnc4c(C(=O)N5CCC[C@@H]5C)cccc34)CC2)s1 (racemic) [Example 82, methyl N-[4-methyl-5-({4-[(2S)-2-({8-[(2S)-2-methylpyrrolidine-1-carbonyl]quinazolin-4-yl}amino)propyl]piperazin-1-yl}sulfonyl)-1,3-thiazol-2-yl]carbamate]
10 to 100 | COC(=O)c1cccc2c(N[C@@H](C)CN3CCN(S(=O)(=O)c4cnc(NC(C)=O)s4)CC3)ncnc12 [Example 20, methyl 4-{[(2S)-1-{4-[(2-acetamido-1,3-thiazol-5-yl)sulfonyl]piperazin-1-yl}propan-2-yl]amino}quinazoline-8-carboxylate]
10 to 100 | COC(=O)Nc1nc(C)c(S(=O)(=O)N2CCN(C[C@H](C)Nc3nc(C)nc4c(C(F)(F)F)cccc34)CC2)s1 [Example 2, methyl N-[4-methyl-5-({4-[(2S)-2-{[2-methyl-8-(trifluoromethyl)quinazolin-4-yl]amino}propyl]piperazin-1-yl}sulfonyl)-1,3-thiazol-2-yl]carbamate]
10 to 100 | Cc1noc(-c2ccc(S(=O)(=O)N3CCN(C[C@H](C)Nc4ncnc5c(C(F)(F)F)cccc45)CC3)o2)c1C [Example 68, N-[(2S)-1-(4-{[5-(3,4-dimethyl-1,2-oxazol-5-yl)furan-2-yl]sulfonyl}piperazin-1-yl)propan-2-yl]-8-(trifluoromethyl)quinazolin-4-amine]
10 to 100 | COC(=O)Nc1nc(C)c(S(=O)(=O)N2CCN(C[C@H](C)Nc3nc(C4CC4)nc4c(C)cccc34)CC2)s1 [Example 18, methyl N-[5-({4-[(2S)-2-[(2-cyclopropyl-8-methylquinazolin-4-yl)amino]propyl]piperazin-1-yl}sulfonyl)-4-methyl-1,3-thiazol-2-yl]carbamate]

Source: patent publication US12404270B2, “Quinazoline derivatives as LPA receptor 2 inhibitors” (CHIESI FARMACEUTICI S.P.A., priority 2019, dated 2025)
